Experimental findings from patent EP1015446B1, “(4-PIPERIDINYL)-1H-2-BENZOPYRAN DERIVATIVES USEFUL AS ANTIPSYCHOTIC AGENTS” (Aventis Pharmaceuticals Inc., priority 1997, dated 1998) are described below.

The target in test [1] is T1, cloned human dopamine D2Long receptors (Homo sapiens, UniProt P14416).
T1 construct: expressed in transfected cells; membranes used
Kind of test: biochemical. It is filed as binding.
Protocol: A single high expressing clonal cell line was isolated and membranes from this cell line were used for receptor binding assays. […] The incubation buffer contained: 50 mM Tris, 120 mM NaCl; 5 mM Kcl; 2 mM CaCl2; 1 mM MgCl2; pH 7.7). […] Incubations were performed at 37 °C in a shaking water bath for 30 min, terminated by rapid filtration through Whatman GF/B filters (presoaked in 0.3% polyethyleneimine), and counted in a liquid scintillation counter. Non-specific binding was defined as that remaining in the presence of 3 µM eticlopride. […] The percent inhibition at each drug concentration was the average of duplicate determinations.
For most assays, a 100mM stock solution of test compound with solvent and buffer is prepared so that concentrations of 10^-5 to 10^-8M are attained. Cheng-Prisoff determination (Ki's) are performed using Prism software.

The test system of test [2] is CD-1 male mice. As to the kind of experiment: Climbing mouse assay (CMA): antagonism of apomorphine-induced climbing. In kind it is in vivo. The protocol:
This test may be used as to identify compounds useful in treating psychosis. Costall, B. et al, Eur. J. Pharm. 50: 39-50 (1978); Protais, P., et al., Psychopharmacology 50:1-6 (1976). […] This effect of apomorphine is antagonized by the D2 receptor antagonist.
CD-1 male mice (20-30 grams) are assigned to groups of 8 and individually placed in wire mesh stick cages and allowed one hour for adaptation to new environment. Apomorphine is injected at 1.5 mg/kg subcutaneously which is a dose which causes climbing in all subjects for thirty minutes. Test compounds are administered intraperitoneally thirty minutes prior to the apomorphine administration at a dose of 20 mg/kg.
For evaluation of climbing, three readings are taken at ten, twenty and thirty minutes after apomorphine administration according to the following scale:
The climbing scores are individually totaled (maximal score: 6 per mouse over three readings) and total score of the control (vehicle intraperitoneally (ip) and apomorphine subcutaneous) is set to 100%. ED50 values with 95% confidence limits calculated by a linear regression analysis of some of the compounds of the present invention as well as a standard antipsychotic agent (clozapine) are presented in Table 1.

Where [3] appears, read: Binding to Human D2Long Receptors, displacement of [3H]N-methyl spiroperidol (0.4 nM), membranes of transfected Chinese Hamster Ovary cells, 37 °C, 30 min, read-out: Ki.
The mark [4] stands for this setting: ip, thirty minutes prior to apomorphine 1.5 mg/kg subcutaneously, climbing scored at ten, twenty and thirty minutes, linear regression analysis, read-out: ED50.

pKi: −log10 of the molar value. Where a name gives a salt, the structure may show the parent alone. Read-outs that look alike come from different tables or passages of the source.

T1 sequence (P14416 whole entry): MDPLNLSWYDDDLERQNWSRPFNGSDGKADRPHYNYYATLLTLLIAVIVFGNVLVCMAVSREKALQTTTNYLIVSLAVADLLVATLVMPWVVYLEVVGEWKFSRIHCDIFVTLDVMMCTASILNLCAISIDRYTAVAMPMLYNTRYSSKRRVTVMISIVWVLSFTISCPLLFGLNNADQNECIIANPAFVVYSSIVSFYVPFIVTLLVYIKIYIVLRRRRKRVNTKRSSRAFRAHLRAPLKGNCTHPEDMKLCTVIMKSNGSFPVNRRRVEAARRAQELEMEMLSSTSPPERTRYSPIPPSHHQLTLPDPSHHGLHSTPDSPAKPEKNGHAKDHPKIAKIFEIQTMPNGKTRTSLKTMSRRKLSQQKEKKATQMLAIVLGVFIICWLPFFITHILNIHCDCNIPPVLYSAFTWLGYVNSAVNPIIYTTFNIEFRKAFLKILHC

As to `CS(=O)(=O)N1CCC([C@@H]2Cc3c(ccc(O)c3O)[C@H](CN)O2)CC1` (relative stereo) [Example 3D, cis-1-(Aminomethyl)-3,4-dihydro-3-(1-methylsulfonyl-4-piperidinyl)-1H-2-benzopyran-5,6-diol Hydrobromide], the pKi in test [1] (setting [3]) is 5.38.

With `NC[C@@H]1O[C@H](C2CCN(CCc3ccccc3)CC2)Cc2c1ccc(O)c2O` (relative stereo) [Example 4D, cis-1-(Aminomethyl)-3,4-dihvdro-3-[1-(2-phenylethyl)-4-piperidinyl]-1H-2-benzopyran-5,6-diol Dihydrobromide Sesquihydrate], it took a dose of 8.1 mg/kg to reach the 50% effect level in test [2] (ED50).

Take `Br.Br.CC(=O)Oc1ccc2c(c1OC(C)=O)C[C@@H](C1CCN(CCc3ccccc3)CC1)O[C@H]2CN` (relative stereo) [Example 4E, cis-1-(Aminomethyl)-5,6-diacetoxy-3,4-dihydro-3-[1-(2-phenylethyl)-4-piperidinyl]-1H-2-benzopyran Dihydrobromide]: the pKi in test [1] (setting [3]) was 5.82. In addition, in test [2] (setting [4]), the ED50 was 11.1 mg/kg.

Consider `Br.Br.CNC[C@@H]1O[C@H](C2CCN(CCc3ccccc3)CC2)Cc2c1ccc(O)c2O` (relative stereo) [Example 5, cis-1-(N-Methylaminomethyl)-3,4-dihydro-3-[1-(2-phenylethyl)-4-piperidinyl)-1H-2-benzopyran-5,6-diol Dihydrobromide], for which the ED50 in test [2] (setting [4]) worked out at 6.9 mg/kg.

Take `CCN1CCC([C@@H]2Cc3c(ccc(O)c3O)[C@H](CN)O2)CC1` (relative stereo) [Example 8, cis-1-(Aminomethyl)-3,4-dihydro-3-(1-ethyl-4-piperidinyl)-1H-2-benzopyran-5,6-diol Dihydrobromide]: the pKi in test [1] (setting [3]) was 5.60.

Consider `Br.Br.NC[C@@H]1O[C@H](C2CCN(CCCc3noc4cc(F)ccc34)CC2)Cc2c1ccc(O)c2O` (relative stereo) [Example 9, cis-1-(Aminomethyl)-3,4-dihydro-3-[1-[3-(6-fluoro-1,2-benzisoxazol-3-yl)propyl]piperidin-4-yl]-1H-2-benzopyran-5,6-diol Dihydrobromide], for which, in test [1] (setting [3]), the pKi is 6.75. For the same compound, the ED50 in test [2] (setting [4]) was determined as 16 mg/kg.

With `CNC[C@@H]1O[C@H](C2CCN(CCc3ccc(OC)cc3)CC2)Cc2c1ccc(O)c2O` (relative stereo) [Example 10, cis-3,4-Dihydro-3-[1-[2-(4-methoxyphenyl)ethyl]-4-piperidinyl]-1-(N-methylaminomethyl)-1H-2-benzopyran-5,6-diol Dihydrochloride], in test [1] (setting [3]), the pKi was 5.60.

On to `COc1ccc2c(c1OC)C[C@@H](C1CCN(CCCC(=O)c3ccc(F)cc3)CC1)O[C@H]2CNC=O.Cl` (relative stereo) [Example 21, N-[3-[1-[4-(4-Fluorophenyl)-4-oxobutyl]-4-piperidinyl]-3,4-dihydro-5,6-dimethoxy-1H-2-benzopyran-1-ylmethyl]formamide Hydrochloride], for which, in test [2] (setting [4]), the ED50 is 19.6 mg/kg.

For `NC[C@@H]1O[C@H](C2CCN(CCc3cccs3)CC2)Cc2c1ccc(O)c2O` (relative stereo) [Example 25, cis-1-Aminomethyl-3,4-dihydro-3-[1-(2-(thiophen-2-yl)-ethyl-4-piperidinyl]-1H-2-benzopyral-5,6-diol Dihydrochloride Hydrate], in test [1] (setting [3]), the pKi was 5.68.

With `Cc1ccccc1CCN1CCC([C@@H]2Cc3c(ccc(O)c3O)[C@H](CN)O2)CC1` (relative stereo) [Example 26, cis-1-Aminomethyl-3,4-dihydro-3-[1-[2-(2-methylphenyl)ethyl]-4-piperidinyl]-1H-2-benzopyran-5,6-diol Dihydrochloride], the pKi in test [1] (setting [3]) is 6.16.

In the case of `CN1CCN(C2=Nc3cc(Cl)ccc3Nc3ccccc32)CC1` [Clozapine, reference compound], the ED50 in test [2] (setting [4]) is 8.1 mg/kg.

Consider `O=CNC[C@@H]1O[C@H](C2CCN(CCCC(c3ccc(F)cc3)c3ccc(F)cc3)CC2)Cc2c1ccc1c2OC2(CCCCC2)O1` [Example 28, cis-N-[3-[1-[4,4-Bis-(4-fluorophenyl)butyl]-4-DiDeridinyl]-5,6-(cyclohexylidenedioxy)-3,4-dihydro-1H-2-benzopyran-1-ylmethyl]formamide Oxalate Hemihydrate], for which, in test [1], the pKi is 6.19.

Consider “cis-1-(3-[3-[4-[1-(Aminomethyl)-3,4-dihydro-5,6-dihydroxy-1H-2-benzopyran-3-yl]-1-piperidinyl]propoxy]-3-methoxyphenyl)ethanone Dihydrochloride Dihydrate [Example 31]”, for which the pKi in test [1] (setting [3]) is 5.96.

In the case of “cis-3-[1-[2-(4-Chlorophenyl)ethyl]--4-piperidinyl]-3,4-dihydro-1-(N-methylaminomethyl)-1H-2-benzopyran-5,6-diol dihydrochloride hemihydrate [Example 15]”, the pKi in test [1] (setting [3]) was 6.38.
